Where two headings read alike, the source gives them in different places.

Type in all cases: cell-based
The subject of one assay is PBMC from healthy donors. Kind of assay: [3H]Thymidine Incorporation (MLR). The following applies: mixed PBMC responder/stimulator 1:1, 4 days. The method, then:
[3H]Thymidine Incorporation (MLR)
Freshly isolated PBMC from healthy donors were either used as responders, where the cells were pre-treated with various concentrations of inhibitors (as indicated in the figure legends), or stimulators where the cells were pre-treated with 0.05 mg/ml Mitomycin C for 20 min. Stimulator cells were washed twice with RPMI 1640 and mixed with responder PBMCs at a 1:1 ratio, totaling 2×10^5 cells/well in quadruplicate in a 96-well U-bottom tissue culture plates (Falcon). Cells were cultured in complete RPMI 1640 (supplemented with 10% FBS, 1 mM sodium pyruvate, and 100 IU/ml penicillin-streptomycin, 0.01M HEPES and 55 μM β-ME [Invitrogen]) for 4 days at 37° C. in 5% CO2. Cultures were pulsed with 0.5 μCi [3H]-thymidine (PerkinElmer) during the last 6 hrs of culture. Cells were harvested on filter plates using a 96-well plate harvester (PerkinElmer), and the incorporation of [3H]-thymidine was measured as cpm in a Topcount Microplate scintillation counter (PerkinElmer). Stimulator cells alone or responder cells alone were set up in parallel as controls.

The subject of assay [1] is T cell IL-2 production in human whole blood. Nature of the assay: Human Whole Blood Assay (inhibition of T cell IL-2 production). The settings on record: 10 μM Thapsigargin overnight, plasma IL-2 by AlphaLISA, read-out: HWB. The method, then:
Inhibition of T cell IL-2 production CRAC compounds were tested in human whole blood from normal donors. 200 μl of human whole blood was aliquoted into each well of a round bottom 96 well plate. Concentration-response curves were generated for test compounds and CsA (as controls) by performing serial dilutions of the compounds and incubating each concentration in a single well for 30 min (experiment was performed in triplicate). Following incubation, the blood was stimulated with 10 μM Thapsigargin (SIGMA) overnight at 37° C. IL-2 concentrations in the plasma were determined by AlphaLISA IL-2 assay (Perkin Elmer). Data analysis was performed using GraphPad PRISMS.

Assay [2] relates to IL-2 production in Jurkat cell (ATCC). Kind of assay: Jurkat IL-2 Production Assay. The settings on record: Jurkat cells, 18-20 h incubation, serum/stimulant variant (1% FBS/PHA or 30% FBS/PMA+ionomycin) not given. The protocol: Jurkat IL-2 Production Assay Cell: Jurkat cell (ATCC) was grown in RPMI 1640 with 10% FBS and 1% penicillin/streptomycin. The cell density was kept at 1.2˜1.8×10^6/mL in culture flask before seeding into culture plate, and the cell density in the plate was 0.5×10^6/2004/well. Culture Media: RPMI 1640 with 1% FBS or 30% FBS for high serum assay. Test Compound: Serial dilution was done in 100% DMSO, and intermediate dilution was done with RPMI 1640 medium with 1% FBS. The DMSO final concentration in culture well was 0.25%. Stimulant: PHA (Sigma#L9017-10MG) was used for the assay with 1% FBS in culture medium, and added after 10 minutes exposure of cell to compound/DMSO. The PHA final concentration in culture well was 5 μg/mL. PMA (Sigma# P-8139 5MG)/Ionomycin (Sigma# I0634-5MG) was used for the assay with 30% FBS in culture medium, and added at same time point as the 1% FBS culture assay. The final concentration of PMA was 50 ng/mL, and Ionomycin final concentration was 500 ng/mL. Incubation: At 37° C. with 5% CO2 and 95% humidity for 18 h˜20 h. IC50: IC50 was calculated with the data analysis software XLfit4, General Pharmacology model 251.

Take `CCc1sc(-c2cnccn2)nc1-c1ccc2c(c1)OCC(c1c(F)cccc1F)N2` (stereo not shown) [Example 16, 3-(2,6-difluorophenyl)-7-(5-ethyl-2-(pyrazin-2-yl)thiazol-4-yl)-3,4-dihydro-2H-benzo[b][1,4]oxazine]: the IC50 with PBMC from healthy donors is 0.18 µM; in assay [1] (T-cell), 0.87 µM; in assay [2] (Homo sapiens) it was 0.02 µM.
As for `CCn1nc(-c2cccnc2)cc1-c1ccc2c(c1)OCC(c1c(F)cccc1F)N2` (stereo not shown) [Example 7, 3-(2,6-Difluoro-phenyl)-7-(2-ethyl-5-pyridin-3-yl-2H-pyrazol-3-yl)-3,4-dihydro-2H benzo[1,4]oxazine], the figures for the IC50 (in the assay on PBMC from healthy donors; in assay [1] (T-cell); in assay [2] (Homo sapiens)) were 0.33 µM, 0.32 µM and 0.07 µM, respectively.
On to “(R)-3-(2,6-Difluoro-phenyl)-7-(2-methyl-4-trifluoromethyl-phenyl)-3,4-dihydro-2H-benzo[1,4]oxazine or (S)-3-(2,6-Difluoro-phenyl)-7-(2-methyl-4-trifluoromethyl-phenyl)-3,4-dihydro-2H-benzo[1,4]oxazine [Example 2]”, for which the IC50 came to 3.16 µM in assay [1] and 0.08 µM in assay [2].
As for `CCn1nc(C(F)(F)F)cc1-c1ccc2c(c1)OCC(c1c(F)cccc1F)N2` (stereo not shown) [Example 6, 3-(2,6-Difluoro-phenyl)-7-(2-ethyl-5-trifluoromethyl-2H-pyrazol-3-yl)-3,4-dihydro-2H-benzo[1,4]oxazine], the IC50 is 0.11 µM in the assay with PBMC from healthy donors, 0.51 µM in assay [1] (T-cell) and 0.02 µM in assay [2] (Homo sapiens).
Consider `Cc1sc(-c2ccccn2)nc1-c1ccc2c(c1)OCC(c1c(F)cccc1Cl)N2` (stereo not shown) [Example 31, 3-(2-Chloro-6-fluoro-phenyl)-7-(5-methyl-2-pyridin-2-yl-thiazol-4-yl)-3,4-dihydro-2H-benzo[1,4]oxazine], for which the figures for the IC50 in assay [1] (T-cell) and in assay [2] (Homo sapiens) were 3.55 µM and 0.14 µM, respectively.
With `CCc1sc(-c2cc(C)on2)nc1-c1ccc2c(c1)OCC(c1c(F)cccc1F)N2` (stereo not shown) [Example 20, 3-(2,6-difluorophenyl)-7-(5-ethyl-2-(5-methylisoxazol-3-yl)thiazol-4-yl)-3,4-dihydro-2H-benzo[b][1,4]oxazine], the figures for the IC50 (in the assay on PBMC from healthy donors; in assay [1] (T-cell); in assay [2] (Homo sapiens)) were 0.43 µM, 0.36 µM and 0.03 µM, respectively.
Consider `CCn1nc(-c2cccnc2)nc1-c1ccc2c(c1)OCC(c1c(F)cccc1F)N2` (stereo not shown) [Example 10, 3-(2,6-Difluoro-phenyl)-7-(2-ethyl-5-pyridin-3-yl-2H-[1,2,4]triazol-3-yl)-3,4-dihydro-2H-benzo[1,4]oxazine], for which the IC50 turned out to be 0.51 µM in assay [1] (T-cell) and 0.09 µM in assay [2] (Homo sapiens).
Consider `CCc1sc(-c2cccnc2)nc1-c1ccc2c(c1)OCC(c1c(F)cccc1F)N2` (stereo not shown) [Example 14, 3-(2,6-Difluoro-phenyl)-7-(5-ethyl-2-pyridin-3-yl-thiazol-4-yl)-3,4-dihydro-2H-benzo[1,4]oxazine], for which the results for the IC50 (with PBMC from healthy donors; in assay [1] (T-cell); in assay [2] (Homo sapiens)) were 0.1 µM, 0.52 µM and 0.03 µM, respectively.
With `Cc1sc(-c2cccnc2)nc1-c1ccc2c(c1)OCC(c1c(F)cccc1Cl)N2` (stereo not shown) [Example 32, 3-(2-Chloro-6-fluoro-phenyl)-7-(5-methyl-2-pyridin-3-yl-thiazol-4-yl)-3,4-dihydro-2H-benzo[1,4]oxazine], the results for the IC50 in assay [1] (T-cell) and in assay [2] (Homo sapiens) were 0.58 µM and 0.05 µM, respectively.
In the case of `Cc1sc(-c2cccnc2)nc1-c1ccc2c(c1)OCC(c1c(F)cccc1F)N2` (stereo not shown) [Example 12, 3-(2,6-Difluoro-phenyl)-7-(5-methyl-2-pyridin-3-yl-thiazol-4-yl)-3,4-dihydro-2H-benzo[1,4]oxazine], the IC50 in the assay with PBMC from healthy donors was found to be 0.19 µM; in assay [1] (T-cell), 0.43 µM; in assay [2] (Homo sapiens), 0.03 µM.
For `CCc1sc(-c2ccncc2)nc1-c1ccc2c(c1)OCC(c1c(F)cccc1F)N2` (stereo not shown) [Example 17, 3-(2,6-Difluoro-phenyl)-7-(5-ethyl-2-pyridin-4-yl-thiazol-4-yl)-3,4-dihydro-2H-benzo[1,4]oxazine] the same measures were 0.44 µM, 0.32 µM and 0.02 µM.
In the case of `Cc1sc(-c2ccccn2)nc1-c1ccc2c(c1)OCC(c1c(F)cccc1F)N2` (stereo not shown) [Example 11, 3-(2,6-Difluoro-phenyl)-7-(5-methyl-2-pyridin-2-yl-thiazol-4-yl)-3,4-dihydro-2H-benzo[1,4]oxazine], the IC50 in assay [1] (T-cell) was 1.82 µM; in assay [2] (Homo sapiens), 0.12 µM.

The values above are taken from patent US20130090333A1, “BENZOXAZINE DERIVATIVES AS CRAC MODULATORS” (Hoffmann-La Roche Inc., priority 2011, published 2013).
